The source of these data is patent US4988814A, “Tertiary alkyl functionalized piperazine derivatives” (American Home Products Corp., priority 1989, dated 1991).

For assay [1], the target named is T1, 5-HT1A serotonin receptor (Rattus norvegicus, UniProt P19327).
T1 construct: 44: 1685-1696, 1985; from tissue
T1 sequence (P19327 1-422): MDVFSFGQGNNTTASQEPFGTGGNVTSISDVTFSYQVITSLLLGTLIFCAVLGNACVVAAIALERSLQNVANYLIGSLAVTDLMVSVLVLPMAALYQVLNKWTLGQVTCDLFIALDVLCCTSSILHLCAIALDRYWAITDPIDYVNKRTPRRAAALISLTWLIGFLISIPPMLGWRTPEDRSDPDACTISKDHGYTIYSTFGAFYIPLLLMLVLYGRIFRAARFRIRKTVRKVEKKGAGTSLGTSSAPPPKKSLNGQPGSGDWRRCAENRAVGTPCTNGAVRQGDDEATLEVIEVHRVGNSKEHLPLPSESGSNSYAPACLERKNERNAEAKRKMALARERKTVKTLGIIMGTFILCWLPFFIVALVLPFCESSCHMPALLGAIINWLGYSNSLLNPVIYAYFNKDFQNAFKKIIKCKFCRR
As to the kind of experiment: 5-HT1A receptor binding, displacement of [^3 H] 8-OH DPAT (Hall et al.). The note with it: for inhibition at 0.1 µM / inhibition at 1 µM: read-out: Affinity for 5HT1A Receptor % Inhibition; for IC50: read-out: Affinity for 5HT1A Receptor IC50.
Description: 8-OH DPAT (dipropylaminotetralin) from the 5-HT1A serotonin receptor by the procedure of Hall et al., J. Neurochem.

The target of a further assay is T2, D2 dopamine receptor (Rattus norvegicus, UniProt P61169).
T2 construct: from tissue; host or cells: homogenized limbic brain tissue
T2 sequence (P61169 whole entry): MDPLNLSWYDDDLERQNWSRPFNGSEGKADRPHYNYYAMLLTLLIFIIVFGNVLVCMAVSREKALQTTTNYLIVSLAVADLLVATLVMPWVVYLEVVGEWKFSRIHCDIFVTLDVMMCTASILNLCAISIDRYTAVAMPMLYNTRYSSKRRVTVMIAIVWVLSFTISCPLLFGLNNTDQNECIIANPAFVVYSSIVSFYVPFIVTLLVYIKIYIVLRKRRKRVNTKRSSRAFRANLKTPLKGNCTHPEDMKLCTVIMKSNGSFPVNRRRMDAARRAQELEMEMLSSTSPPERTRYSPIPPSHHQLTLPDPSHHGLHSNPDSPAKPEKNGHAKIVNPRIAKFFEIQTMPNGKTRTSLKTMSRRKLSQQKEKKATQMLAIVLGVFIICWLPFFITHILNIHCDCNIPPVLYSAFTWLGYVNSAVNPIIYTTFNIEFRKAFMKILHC
Description: D2 dopamine receptor binding, limbic brain tissue incubated with ^3 H-spiroperiodol. Conditions: for inhibition at 1 µM: read-out: Affinity for D2 Receptor % Inhibition. As for the experimental part: The D2 dopamine receptor binding study was in accordance with a modification of the procedure of Field et al., Brain Res., 136, pp. 578-584 (1977) and Yamamura et al., eds., Neurotransmitter Receptor Binding, Raven Press, N.Y. (1978), wherein homogenized limbic brain tissue is incubated with ^3 H-spiroperiodol and various concentrations of test compounds, filtered and washed and shaken with Hydrofluoro scintillation cocktail (National Diagnostics) and counted in a Packard 460CD scintillation counter.

The next assay has as its system 5-HT1A receptor. The note with it: prior art; cited from earlier work.
Another assay concerns D2 receptor. The note with it: prior art; cited from earlier work.

Each structure is given as a SMILES string.

As for `COc1ccccc1N1CCN(CCCCNC(=O)NC(C)(C)C)CC1` [Example 1, N-(1,1-Dimethylethyl)-N^1-[4-[4-(2-methoxyphenyl)-1-piperazinyl]butyl]urea], the inhibition at 0.1 µM in assay [1] was determined as 91%.
The same measure, in the same setting: under `COc1ccccc1N1CCN(CCCCNC(=O)C(C)(C)C)CC1` [Example 2, N-[4-[4-(2-Methoxyphenyl)-1-piperazinyl]butyl]-2,2-dimethylpropanamide] stands 100%.
As for `COc1ccccc1N1CCN(CCOC(=O)C(C)(C)C)CC1` [Example 3, 2,2-Dimethylpropanoic acid 2-[4-(2-methoxyphenyl)-1-piperazinyl]ethyl ester], the inhibition at 1 µM in assay [1] was found to be 86%; on D2 dopamine receptor, 89%.
Taken in the same sequence, the figures for `COc1ccccc1N1CCN(CCCOC(=O)C(C)(C)C)CC1` [Example 4, 2,2-Dimethylpropanoic acid 3-[4-(2-methoxyphenyl)-1-piperazinyl]propyl ester] were 98% and 99%.
In the case of `CC(C)(C)C(=O)OCCCN1CCN(c2ccccc2Cl)CC1` [Example 5, 2,2-Dimethylpropanoic acid 3-[4-(2-chlorophenyl)-1-piperazinyl]propyl ester], the inhibition at 1 µM turned out to be 98% in assay [1] and 58% at D2 dopamine receptor.
Turning to `COc1ccccc1N1CCN(CC(C(=O)OC(C)(C)C)c2ccccc2)CC1` (centres unmarked) [Example 12, Tertiary-butyl 3-[1-[4-(2-methoxyphenyl)piperazinyl]]-2-phenylpropanoate], in assay [1], the inhibition at 0.1 µM came to 86%, the inhibition at 1 µM came to 98% and the concentration for half-maximal inhibition (IC50) came out at 11.8 nM.
Regarding `COc1ccccc1N1CCN(CC(C(=O)NC(C)(C)C)c2ccccc2)CC1` (centres unmarked) [Example 13, N-Tertiary-butyl 3-[4-(2-methoxyphenyl)piperazinyl]-2-phenylpropanamide], the IC50 at D2 dopamine receptor (read-out: Affinity for D2 Receptor IC50) came to 1740 nM.
As to `COc1ccccc1N1CCN(CCNC(=O)C2(C)CCCCC2)CC1` [Example 15, N-[2-[4-(2-Methoxyphenyl)-1-piperazinyl)ethyl]-1-methylcyclohexanecarboxamide], the inhibition at 0.1 µM in assay [1] stood at 98%.
Same read-out and setting: the value for `COc1ccccc1N1CCN(CCNC(=O)NC2(C)CCCCC2)CC1` [Example 18, N-[2-[4-(2-Methoxyphenyl)-1-piperazinyl]ethyl]-N'-(1-methylcyclohexyl)urea] was 85%.
Still for that read-out and setting: under `CC1(C(=O)NCCN2CCN(c3ncccn3)CC2)CCCCC1` [Example 19, N-2-(4-(2-Pyrimidinyl)-1-piperazinyl)ethyl-1-methylcyclohexylcarboxamide] stands 67%.
The same measure, in the same setting: under `COc1ccccc1N1CCN(C[C@@H](C)NC(=O)C2(C)CCCCC2)CC1` [Example 20, (R)-N-[2-[4-(2-Methoxyphenyl)-1-piperazinyl]-1-methylethyl]-1-methylcyclohexane carboxamide] stands 100%.
In the case of `COc1ccccc1N1CCN(CC(OC(=O)C(C)(C)C)c2ccccc2)CC1` (centres unmarked) [Example 23, 2,2-Dimethylpropanoic acid 2-(4-(2-methoxyphenyl)-piperazin-1-yl)-1-phenylethyl ester], in assay [1], the inhibition at 0.1 µM was found to be 27%, the inhibition at 1 µM turned out to be 78% and the IC50 turned out to be 270 nM.
Taken in the same sequence, the figures for `COc1ccccc1N1CCN(CC(OC(=O)NC(C)(C)C)c2ccccc2)CC1` (centres unmarked) [Example 24] were 73%, 97% and 20 nM.
The matching figures for `COc1ccccc1N1CCN(CC(C(=O)NNC(C)(C)C)c2ccccc2)CC1` (centres unmarked) [Example 26, N-Tert-butyl-3-[1-[4-(2-methoxy)phenyl]piperazinyl]-2-phenyl-propionhydrazide]: 48%, 96% and 118 nM.
Turning to `O=C1CC2(CCCC2)CC(=O)N1CCCCN1CCN(c2ncccn2)CC1` [buspirone, reference compound], the “5-HT1A receptor affinity/binding (in words)” value in assay [1] is given as “potent affinity”. For the same compound, the “5-HT1A receptor affinity/activity (in words)” value with 5-HT1A receptor is “selective activity”.
As for `CCCCN1C(=O)C2C(=O)N(CCCCN3CCN(c4ccccc4OC)CC3)C(=O)C(C1=O)C2(C)C` [umespirone], the “D2 receptor affinity (in words)” value with D2 receptor is “high affinity”. The “5-HT1A receptor affinity/activity (in words)” value with 5-HT1A receptor is reported as “high affinity”.
